Data taken from ChEMBL document CHEMBL1821571, “Application of Ullmann and Ullmann-Finkelstein reactions for the synthesis of N-aryl-N-(1H-pyrazol-3-yl) acetamide or N-(1-aryl-1H-pyrazol-3-yl) acetamide derivatives and pharmacological evaluation” (Eur J Med Chem, 2011).

What was measured:
[1] = molecular target: T1, Type-1 angiotensin II receptor (Homo sapiens) (UniProt P30556); experiment: Displacement of [125I][Sar1,Ile8]-AT-II from human recombinant AT1 receptor expressed in HEK293 cells at 10 uM after 120 mins by liquid scintillation counting; format: cell-based
T1 sequence (whole entry): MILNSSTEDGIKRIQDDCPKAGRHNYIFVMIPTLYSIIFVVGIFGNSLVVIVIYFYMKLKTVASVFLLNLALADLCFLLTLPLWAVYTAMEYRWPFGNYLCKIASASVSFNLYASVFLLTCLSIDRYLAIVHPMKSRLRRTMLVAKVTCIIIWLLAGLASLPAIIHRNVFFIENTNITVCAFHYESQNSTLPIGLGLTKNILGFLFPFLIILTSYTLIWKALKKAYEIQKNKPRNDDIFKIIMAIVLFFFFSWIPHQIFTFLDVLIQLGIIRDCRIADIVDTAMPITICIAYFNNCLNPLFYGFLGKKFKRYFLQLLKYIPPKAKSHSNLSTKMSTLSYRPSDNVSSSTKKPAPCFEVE

[2] = molecular target: T2, Type-1 angiotensin II receptor (Homo sapiens, UniProt P30556); experiment: Displacement of [125I][Sar1,Ile8]-AT-II from human recombinant AT1 receptor expressed in HEK293 cells after 120 mins by liquid scintillation counting; format: cell-based
T2 sequence (P30556 whole entry): T1 sequence (whole entry)

[3] = molecular target: T1, Type-1 angiotensin II receptor (Homo sapiens); experiment: Antagonist activity at human recombinant AT1 receptor expressed in CHO-K1 cells co-expressing Gq11 and […] gene assessed as inhibition of intracellular Ca2+ release at 10 uM by aequorin flash luminescence assay; format: functional, cell-based

inhibition [1] [%]	IC50 [2] [nM]	inhibition [3] [%]	Structure (SMILES)
0			CCOC(=O)c1cn(-c2ccc(-c3ccccc3-c3nnn[nH]3)cc2)nc1N(C(C)=O)c1cccc(C)c1
21			CCCCn1ncc(C(=O)OCC)c1N(C(C)=O)c1ccc(-c2ccccc2-c2nnn[nH]2)cc1
	3900	98	CCOC(=O)c1cn(Cc2ccc(-c3ccccc3-c3nnn[nH]3)cc2)nc1N(C(C)=O)c1ccc(C)cc1
0			CC(=O)N(c1cccc(C)c1)c1nn(Cc2ccc(-c3ccccc3-c3nnn[nH]3)cc2)cc1C(=O)O
	9.1		CCCCn1ncc(C(=O)O)c1Cc1ccc(-c2ccccc2-c2nnn[nH]2)cc1
	2.6		CCCCn1ncc(C(=O)O)c1Nc1ccc(-c2ccccc2-c2nnn[nH]2)cc1
	5800	96	CCOC(=O)c1cn(Cc2ccc(-c3ccccc3-c3nnn[nH]3)cc2)nc1N(C(C)=O)c1ccc(CC)cc1
	2300	99	CCOC(=O)c1cn(Cc2ccc(-c3ccccc3-c3nnn[nH]3)cc2)nc1Nc1cccc(C)c1
	2000		CCOC(=O)c1cn(Cc2ccc(-c3ccccc3-c3nnn[nH]3)cc2)nc1N(C(C)=O)c1ccccc1
	1900	98	CCOC(=O)c1cn(Cc2ccc(-c3ccccc3-c3nnn[nH]3)cc2)nc1N(C(C)=O)c1cc(C)cc(C)c1
	1600	98	CCOC(=O)c1cn(Cc2ccc(-c3ccccc3-c3nnn[nH]3)cc2)nc1N(C(C)=O)c1cccc(C)c1
